Laboratory results reported in US11656230B2, “Method for predicting cancer sensitivity” (Eutropics Pharmaceuticals, Inc., priority 2013, dated 2023).

Legend:
[1] = biological target: Bcl-xL/Bim heterodimer in JEKO-1 cells (Homo sapiens, UniProt Q07817); assay: Flow cytometry (FACS), intracellular staining with HSBXB antibody; assay type: cell-based; settings: 10 uM, 3 hours on ice, clone 32 at 10 ug/ml, FIG. 18
Text: As a positive control we pretreated with the Bim BH3 peptide at a concentration that achieve saturated binding to the endogenous Bcl-XL. […] To enhance staining and to establish a positive control we added saturating amount of the Bim BH3 peptide to partially lysed cells. As a negative control we pretreated with BH3 mimetic compound, ABT 263 to displace Bim from Bcl-xL. In this experiment 5×10e6 JEKO 1 cells were suspended in Newmeyer buffer (Ryan et al Proc Natl Acad Sci USA 2010; 107:12895-900), digitonin (Sigma-Aldrich, St Louis Mo.) and treated with 100 uM Bim BH3 peptide; or ABT263 compound at 10 uM; or not treated. Cells were incubated on ice for 3 hours, and then washed and treated with clone 32 at 10 ug/ml for 20 minutes, washed again and stained with secondary goat anti-mouse IgG alexa-488. An IgG-2A isotype control was also prepared and run in parallel. Samples are analyzed on a FACS Canto II (BD Biosciences, San Jose Calif.) using the BD FACS Diva software.

[2] = biological target: Bcl-XL/BIM-BH3 heterodimer (Homo sapiens, UniProt Q07817); assay: ELISA: inhibition of HSBXB binding to non-covalent Bcl-XL-GST/BIM-BH3 heterodimer by ABT-263; settings: heterodimers formed with BIM peptide on Glutathione-coated ELISA plates; compound added after peptides and before monoclonal antibody; FIG. 15
Bcl-XL/BIM-BH3 heterodimer, sequence (Q07817 whole entry, the tested form may be a part, one chain of several): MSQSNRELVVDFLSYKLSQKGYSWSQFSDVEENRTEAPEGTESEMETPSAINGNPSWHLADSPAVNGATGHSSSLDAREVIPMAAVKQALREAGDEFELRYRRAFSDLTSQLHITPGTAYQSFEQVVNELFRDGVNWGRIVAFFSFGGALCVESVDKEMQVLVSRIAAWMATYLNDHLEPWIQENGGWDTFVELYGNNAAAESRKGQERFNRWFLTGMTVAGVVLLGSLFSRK
Procedure: The compound was added to the ELISA plates after addition of peptides and before adding the monoclonal antibody. The Bib BH3 domain peptide was added as a negative control.
ABT-263 disrupts Bcl-2/Bcl-xL interactions with pro-death proteins (e.g., Bim), leading to the initiation of apoptosis within 2 hours post treatment (Tse et al., 2008).

[3] = biological target: Bcl-XL/BIM heterodimer in SKBR3 cells (Homo sapiens, UniProt Q07817); assay: Near-infrared imaging of HSBXB binding in paraformaldehyde fixed cells incubated with ABT-263; assay type: cell-based; settings: different concentrations of ABT-263, FIG. 17
Bcl-XL/BIM heterodimer in SKBR3 cells, sequence (Q07817 whole entry, one chain of several): as the sequence (Q07817 whole entry, the tested form may be a part, one chain of several) above
Text: IRDye 800CW goat anti-mouse antibody was used for detecting the heterodimer specific mouse monoclonal antibody and IRDye 800CW Goat anti-rabbit antibody was used to detect the commercial Bcl-XL rabbit monoclonal antibody. […] The detection system uses near-infrared (IR) fluorophores (670-1100 nm) that have a distinct advantage over visible dyes, in that very low background fluorescence at longer wavelengths provides an excellent signal-to-noise ratio. […] In this system antibodies labeled with IR dyes at different wavelengths are used for detection of multiple targets. The imager simultaneously detects two distinct wavelengths. A scanning optical assembly carries two laser diodes that generate excitation light at 680 and 780 nm, as well as two avalanche photodiodes, which detect emitted fluorescence at 720 and 820 nm. […] IRDye 800CW goat anti-mouse antibody was used for detecting the heterodimer specific mouse monoclonal antibody and IRDye 800CW Goat anti-rabbit antibody was used to detect the commercial Bcl-XL rabbit monoclonal antibody.

[4] = system: Bcl-2/Bcl-xL interactions with pro-death proteins (e.g., Bim); settings: Tse et al., 2008; cited from earlier work
[5] = system: mitochondrial outer membrane permeabilization (MOMP); assay: Mitochondrial profiling assay (MOMP); assay type: cell-based; settings: mitochondrial profiling assay (unpublished data)
Text: In one embodiment, this can be determined by measuring the mitochondrial outer membrane permeabilization (MOMP), which increases when a cell is about to undergo apoptosis. Mitochondrial outer membrane permeabilization can be measured for example, using the potentiometric dye JC-1 or dihydrorhodamine. MOMP can be measured using standard techniques known in the art, including those described in Bogenberger et al. (Leukemia et al. (2014) which is herein incorporated by reference in its entirety). In a non-limiting example, cells are permeabilized and incubated with a mitochondrial dye (e.g. JC-1 or dihydrorhodamine 123) and BH3 peptides with dimethyl sulfoxide or carbonyl cyanide m-chlorophenyl hydrazone (CCCP) and the degree of staining is measured. […] As a positive control we pretreated with the Bim BH3 peptide at a concentration that achieve saturated binding to the endogenous Bcl-XL. This treatment is routinely used as a positive control for complete mitochondrial priming in our mitochondrial profiling AML test. […] To enhance staining and to establish a positive control we added saturating amount of the Bim BH3 peptide to partially lysed cells. […] Samples are analyzed on a FACS Canto II (BD Biosciences, San Jose Calif.) using the BD FACS Diva software.

Bcl-xL/Bim heterodimer in JEKO-1 cells, sequence (Q07817 whole entry, one chain of several): as the sequence (Q07817 whole entry, the tested form may be a part, one chain of several) above

SMILES: CC1(C)CCC(c2ccc(Cl)cc2)=C(CN2CCN(c3ccc(C(=O)NS(=O)(=O)c4ccc(N[C@H](CCN5CCOCC5)CSc5ccccc5)c(S(=O)(=O)C(F)(F)F)c4)cc3)CC2)C1 [ABT-263, Navitoclax]
- displacement of Bim from Bcl-xL by flow cytometry using HSBXB antibody [1]: this displacement in measurable by flow cytometry
- inhibition of heterodimer antibody signal [2]: dose-dependent inhibition of heterodimer antibody signal
- displacement of Bcl-xL bound BIM BH3 peptide detected by HSBXB [3]: displacement of the Bcl-xL bound BIM BH3 peptide is detected
- time to initiation of apoptosis post treatment [4]: ≤ 2 h
- MOMP on displacement of Bim [5]: results in MOMP
